In patent US9115123B2, “Preventive or therapeutic agent for pain associated with herpes zoster in acute phase” (Kyushu University, priority 2010, dated 2015):

How the values were obtained:
[1] = test system: HSV-1 infected mice (zoster-associated pain in acute phase); assay: Mouse model of herpes zoster, pain-associated reaction to von Frey filament (0.16 g) after intrathecal administration; type: in vivo; details: five to seven days after infection
From the text: Epidermis of the right hind leg (lower part of knee joint) of shaven female C57BL/6J mice was chopped with a bundle of ten 26G injection needles, and coated with a solution (1×10^6 pfu/site) of herpes simplex virus Type I (HSV-1), which as well as varicella zoster virus, belongs to Herpesviridae (family) (Takasaki I, et al., Anesthesiology, 2002, 96:1168-1174). Seven days after infection, the spinal cord was collected after perfusion of 4% neutral buffered paraformaldehyde, replaced with 30% sucrose solution, embedded with OCT compound to prepare frozen slices. […]
The effect of P2X4 receptor antagonism on zoster-associated pain in acute phase was studied using the mouse model of herpes zoster described in Example 2. […] Threshold of the pain was measured before administration of the drug (AM 9:30 to 10:00 and PM 5:30 to 6:00). Pain-associated reaction on the HSV-1 infection side hindpaw was measured using von Frey Filament (0.16 g). […] The pain reaction was evaluated as follows: • Score 0: No reaction • Score 1: Lifting of hind leg • Score 2: Sharp evasion reaction and flinching of hind leg
Each individual pain score was calculated by averaging six scores. The allodynia score (%) was calculated as the average score of each group by counting the maximum reaction score 2 as 100%.
Threshold of the pain was measured before administration of the drugs (AM 9:30 to 10:00 and PM 5:30 to 6:00).

[2] = test system: HSV-1 infected mice (zoster-associated pain); assay: Mouse model of herpes zoster, pain-associated reaction to paintbrush stimulus after oral administration; type: in vivo
From the text: Epidermis of the right hind leg (lower part of knee joint) of shaven female C57BL/6J mice was chopped with a bundle of ten 26G injection needles, and coated with a solution (1×10^6 pfu/site) of herpes simplex virus Type I (HSV-1), which as well as varicella zoster virus, belongs to Herpesviridae (family) (Takasaki I, et al., Anesthesiology, 2002, 96:1168-1174). Seven days after infection, the spinal cord was collected after perfusion of 4% neutral buffered paraformaldehyde, replaced with 30% sucrose solution, embedded with OCT compound to prepare frozen slices. A specimen in cross section was prepared at the fifth lumbar level of the spinal cord, and was subjected to a fluorescent double immunostaining according to Alexa Fluor 488, 546 using OX42 antibody, which has widely been used as a microglia marker, and P2X4 receptor antibody. […] The pain-associated reaction of the hindpaw on the HSV-1 infection side was measured and evaluated referring to the response to a contact stimulant using a paint-brush. The mouse was placed into a cage for measurement, and accustomed to the environment for 1 hour or more. The plantar surface of the right hindpaw was vertically stroked with the paintbrush along the direction from toe to heal, and this was repeated six times at intervals of several seconds. The pain reaction was evaluated as follows: • Score 0: No reaction • Score 1: Lifting of hind leg • Score 2: Sharp evasion reaction and flinching of hind leg Each individual pain score was calculated by averaging six scores.

[3] = target: T1, P2X4 receptor (Homo sapiens, UniProt Q99571); details: reported in cited WO documents and Nagata K, Imai T et al., Molecular Pain, 2009, 5:20; cited from earlier work
T1 sequence (Q99571 1-388): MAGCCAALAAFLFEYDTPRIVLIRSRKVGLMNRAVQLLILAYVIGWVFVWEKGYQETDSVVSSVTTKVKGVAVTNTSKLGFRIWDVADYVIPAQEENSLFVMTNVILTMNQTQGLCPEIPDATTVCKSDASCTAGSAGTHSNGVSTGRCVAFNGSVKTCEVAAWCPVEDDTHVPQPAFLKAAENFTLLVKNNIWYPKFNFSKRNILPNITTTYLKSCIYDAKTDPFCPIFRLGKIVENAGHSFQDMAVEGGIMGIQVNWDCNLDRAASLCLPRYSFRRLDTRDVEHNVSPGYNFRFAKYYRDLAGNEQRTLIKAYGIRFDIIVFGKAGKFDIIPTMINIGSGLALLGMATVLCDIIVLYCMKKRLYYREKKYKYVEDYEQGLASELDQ

| SMILES | threshold score of the pain (von Frey, allodynia score) ([1]; 10 pmol/mouse intrathecal twice a day) | threshold score of the pain (von Frey, allodynia score) ([1]; 30 pmol/mouse intrathecal twice a day) | threshold of the pain (paintbrush pain score) ([2]; seven days after infection (acute phase), 30 mg/kg oral, from 1 hour to 4 hours after administration) | threshold of the pain (paintbrush pain score) ([2]; seven days after infection (acute phase), 50 mg/kg oral, from 30 minutes to 8 hours after administration) | threshold of the pain (paintbrush pain score) ([2]; thirty days after infection (postherpetic neuralgia), 30 mg/kg oral) | threshold of the pain (paintbrush pain score) ([2]; thirty days after infection (postherpetic neuralgia), 50 mg/kg oral, 30 minutes, 1 hour and 4 hours after administration) | P2X4 receptor antagonism / inhibition (in words) [3] |
| --- | --- | --- | --- | --- | --- | --- | --- |
| O=C1CC(=O)N(c2cccc(-c3noc(=S)[nH]3)c2)c2ccc3ccccc3c2N1.[Na] [Compound A, 5-[3-(5-thioxo-4H-[1,2,4]oxadiazol-3-yl)phenyl]-1H-naphtho[1,2-b][1,4]diazepine-2,4(3H,5H)-dione sodium salt] | significantly suppressed | significantly suppressed |  |  |  |  |  |
| Fc1ccc([C@@H]2CCNC[C@H]2COc2ccc3c(c2)OCO3)cc1 [Paroxetine] |  |  | significantly improved | continuously improved | did not show any significant improvement | significant improvement was observed | functions as an inhibitor of P2X4 receptor |
